Results: ChEMBL document CHEMBL5344441, “Discovery and Preclinical Pharmacology of NX-2127, an Orally Bioavailable Degrader of Bruton's Tyrosine Kinase with Immunomodulatory Activity for the Treatment of Patients with B Cell Malignancies” (J Med Chem, 2024)
Active and inactive are the calls of the source. The rule behind the calls is not given here.

Columns and labels:
[1] = target: T1, Protein cereblon/Tyrosine-protein kinase BTK (Mus musculus) (UniProt P35991+Q8C7D2); experiment: In vivo protac activity at CRBN/BTK in BALB/c mouse assessed as remaining BTK protein in splenocyte at 3 mg/kg,po administration measured after 6 hrs by HTRF assay relative to control; assay type: functional, organism-based
T1 sequence (P35991 whole entry, looked up): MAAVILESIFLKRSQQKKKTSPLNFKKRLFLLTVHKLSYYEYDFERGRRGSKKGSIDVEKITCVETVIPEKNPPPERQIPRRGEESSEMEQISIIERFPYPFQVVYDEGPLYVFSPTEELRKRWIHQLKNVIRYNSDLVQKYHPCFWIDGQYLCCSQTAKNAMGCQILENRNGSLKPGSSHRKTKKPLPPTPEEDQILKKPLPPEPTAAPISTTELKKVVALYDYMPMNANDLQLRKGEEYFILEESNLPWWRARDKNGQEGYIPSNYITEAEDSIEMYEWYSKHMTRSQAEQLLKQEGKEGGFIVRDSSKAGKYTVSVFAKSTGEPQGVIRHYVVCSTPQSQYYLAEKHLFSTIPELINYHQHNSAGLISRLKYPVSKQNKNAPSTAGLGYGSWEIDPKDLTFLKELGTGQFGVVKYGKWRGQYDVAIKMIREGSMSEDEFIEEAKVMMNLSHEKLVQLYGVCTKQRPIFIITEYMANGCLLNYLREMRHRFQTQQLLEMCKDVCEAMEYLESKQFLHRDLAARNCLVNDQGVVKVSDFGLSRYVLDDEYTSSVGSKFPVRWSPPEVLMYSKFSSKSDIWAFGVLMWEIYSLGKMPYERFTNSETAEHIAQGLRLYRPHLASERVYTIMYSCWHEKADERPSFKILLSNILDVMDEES
T1 sequence (Q8C7D2 whole entry, looked up): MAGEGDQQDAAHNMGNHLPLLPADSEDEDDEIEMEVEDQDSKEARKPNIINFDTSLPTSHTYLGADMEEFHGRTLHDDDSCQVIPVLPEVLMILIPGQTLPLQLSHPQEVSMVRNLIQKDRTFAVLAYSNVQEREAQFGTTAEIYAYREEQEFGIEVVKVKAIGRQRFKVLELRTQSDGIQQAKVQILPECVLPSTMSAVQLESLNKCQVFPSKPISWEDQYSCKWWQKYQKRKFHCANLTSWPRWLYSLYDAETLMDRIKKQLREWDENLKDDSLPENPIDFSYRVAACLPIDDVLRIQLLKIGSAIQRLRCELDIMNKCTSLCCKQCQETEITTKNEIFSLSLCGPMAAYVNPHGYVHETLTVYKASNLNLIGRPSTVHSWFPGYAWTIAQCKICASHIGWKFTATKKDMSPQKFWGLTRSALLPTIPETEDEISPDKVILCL

[2] = target: T2, Protein cereblon/Tyrosine-protein kinase BTK (Homo sapiens, UniProt Q06187+Q96SW2); experiment: PROTAC activity at CRBN/BTK in human Ramos cells assessed as degradation of BTK protein incubated for 4 hrs by HTRF assay; assay type: cell-based
Target sequence in this assay (Q06187 whole entry): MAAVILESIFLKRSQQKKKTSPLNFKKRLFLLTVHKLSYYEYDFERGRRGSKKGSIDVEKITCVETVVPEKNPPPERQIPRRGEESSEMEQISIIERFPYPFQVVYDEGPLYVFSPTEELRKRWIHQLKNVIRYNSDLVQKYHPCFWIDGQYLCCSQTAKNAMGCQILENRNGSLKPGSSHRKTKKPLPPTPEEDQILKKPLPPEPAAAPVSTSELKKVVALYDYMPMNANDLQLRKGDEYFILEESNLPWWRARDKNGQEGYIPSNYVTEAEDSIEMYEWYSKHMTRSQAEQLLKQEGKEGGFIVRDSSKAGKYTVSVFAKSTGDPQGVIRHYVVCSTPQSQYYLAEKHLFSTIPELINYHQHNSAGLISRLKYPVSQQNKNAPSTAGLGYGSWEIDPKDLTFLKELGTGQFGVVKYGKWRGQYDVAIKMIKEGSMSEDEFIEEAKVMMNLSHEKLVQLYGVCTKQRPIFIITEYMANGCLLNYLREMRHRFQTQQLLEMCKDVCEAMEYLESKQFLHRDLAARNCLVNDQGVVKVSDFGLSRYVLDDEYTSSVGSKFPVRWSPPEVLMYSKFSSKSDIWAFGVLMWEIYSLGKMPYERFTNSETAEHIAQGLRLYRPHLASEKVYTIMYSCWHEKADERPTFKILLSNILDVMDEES
Target sequence in this assay (Q96SW2 whole entry): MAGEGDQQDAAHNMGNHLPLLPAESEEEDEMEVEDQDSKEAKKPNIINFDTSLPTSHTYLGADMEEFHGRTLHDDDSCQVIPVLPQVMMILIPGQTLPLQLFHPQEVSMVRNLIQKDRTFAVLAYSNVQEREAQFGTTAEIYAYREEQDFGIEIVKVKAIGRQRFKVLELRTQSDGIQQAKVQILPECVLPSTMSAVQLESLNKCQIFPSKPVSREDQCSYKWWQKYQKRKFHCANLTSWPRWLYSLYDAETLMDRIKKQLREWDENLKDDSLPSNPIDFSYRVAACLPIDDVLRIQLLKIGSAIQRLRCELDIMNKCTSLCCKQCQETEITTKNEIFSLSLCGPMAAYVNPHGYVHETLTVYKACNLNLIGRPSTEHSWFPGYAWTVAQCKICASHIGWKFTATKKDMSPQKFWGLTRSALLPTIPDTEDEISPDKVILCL

[3] = target: T2, Protein cereblon/Tyrosine-protein kinase BTK; experiment: PROTAC activity at CRBN/BTK in human TMD8 cells assessed as degradation of BTK protein incubated for 4 hrs by HTRF assay; assay type: cell-based
Target sequence in this assay (Q06187 whole entry): as the sequence (Q06187 whole entry) above
Target sequence in this assay (Q96SW2 whole entry): as the sequence (Q96SW2 whole entry) above

[4] = target: T2, Protein cereblon/Tyrosine-protein kinase BTK; experiment: PROTAC activity at CRBN/BTK in human Ramos cells assessed as maximal degradation of BTK protein incubated for 4 hrs by HTRF assay relative to control; assay type: cell-based
Target sequence in this assay (Q06187 2-659 limits assumed): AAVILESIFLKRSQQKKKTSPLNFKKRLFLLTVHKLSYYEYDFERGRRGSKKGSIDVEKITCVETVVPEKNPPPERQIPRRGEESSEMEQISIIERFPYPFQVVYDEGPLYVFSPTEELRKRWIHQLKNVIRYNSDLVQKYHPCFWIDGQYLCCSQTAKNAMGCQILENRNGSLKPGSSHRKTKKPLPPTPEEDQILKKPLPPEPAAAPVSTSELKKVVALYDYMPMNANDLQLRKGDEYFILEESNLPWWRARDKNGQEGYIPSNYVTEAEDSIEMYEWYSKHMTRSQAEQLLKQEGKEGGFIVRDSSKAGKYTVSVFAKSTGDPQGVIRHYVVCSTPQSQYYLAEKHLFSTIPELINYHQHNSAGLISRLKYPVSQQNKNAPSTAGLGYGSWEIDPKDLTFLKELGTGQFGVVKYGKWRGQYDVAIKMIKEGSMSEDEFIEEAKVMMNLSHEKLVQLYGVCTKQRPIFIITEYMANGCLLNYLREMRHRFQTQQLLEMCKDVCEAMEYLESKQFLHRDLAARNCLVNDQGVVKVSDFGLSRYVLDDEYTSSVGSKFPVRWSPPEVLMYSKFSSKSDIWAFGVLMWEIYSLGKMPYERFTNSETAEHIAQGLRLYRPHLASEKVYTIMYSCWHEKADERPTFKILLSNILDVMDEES
Target sequence in this assay (Q96SW2 whole entry partner): as the sequence (Q96SW2 whole entry) above

[5] = target: T2, Protein cereblon/Tyrosine-protein kinase BTK; experiment: PROTAC activity at CRBN/BTK in human TMD8 cells assessed as maximal degradation of BTK protein incubated for 4 hrs by HTRF assay relative to control; assay type: cell-based
Target sequence in this assay (Q06187 2-659 limits assumed): as the sequence (Q06187 2-659 limits assumed) above
Target sequence in this assay (Q96SW2 whole entry partner): as the sequence (Q96SW2 whole entry) above

[6] = target: T3, Protein cereblon/Zinc finger protein Aiolos (Homo sapiens, UniProt Q96SW2+Q9UKT9); experiment: PROTAC activity at CRBN/IKZF3 in human T cell assessed as maximal degradation of IKZF3 protein incubated for 24 hrs by flow cytometry relative to control; assay type: cell-based
Target sequence in this assay (Q96SW2 whole entry, looked up): as the sequence (Q96SW2 whole entry) above
Target sequence in this assay (Q9UKT9 whole entry, looked up): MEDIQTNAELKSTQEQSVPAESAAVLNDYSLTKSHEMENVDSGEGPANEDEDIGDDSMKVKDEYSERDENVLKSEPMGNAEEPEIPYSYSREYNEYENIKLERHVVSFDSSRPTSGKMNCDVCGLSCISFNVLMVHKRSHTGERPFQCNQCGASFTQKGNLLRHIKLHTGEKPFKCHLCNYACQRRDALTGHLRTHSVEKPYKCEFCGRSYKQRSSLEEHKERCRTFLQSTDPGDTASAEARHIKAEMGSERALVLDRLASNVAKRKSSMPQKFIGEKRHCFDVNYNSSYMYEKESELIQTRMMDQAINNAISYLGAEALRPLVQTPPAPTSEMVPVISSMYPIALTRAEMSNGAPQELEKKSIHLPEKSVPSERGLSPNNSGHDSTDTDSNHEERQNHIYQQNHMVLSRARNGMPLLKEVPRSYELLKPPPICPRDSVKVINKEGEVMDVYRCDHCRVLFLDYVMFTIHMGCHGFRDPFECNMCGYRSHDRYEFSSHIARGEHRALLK

[7] = target: T3, Protein cereblon/Zinc finger protein Aiolos; experiment: PROTAC activity at CRBN/IKZF3 in human T cell assessed as degradation of IKZF3 protein incubated for 24 hrs by flow cytometry; assay type: cell-based
Target sequence in this assay (Q96SW2 whole entry): as the sequence (Q96SW2 whole entry) above
Target sequence in this assay (Q9UKT9 whole entry): as the sequence (Q9UKT9 whole entry, looked up) above

TMD8 [8] = experiment: Antitumor activity against human TMD8 cells expressing wild type BTK xenografted in CB17-SCID mouse assessed as tumor growth inhibition at 30 mg/kg,po administration for 25 days; assay type: functional; conditions: TMD8, 600 h, time 25 day, read-out: TGI
TMD8 [9] = experiment: Antitumor activity against human TMD8 cells expressing BTK C481S mutant xenografted in CB17-SCID mouse assessed as tumor growth inhibition at 30 mg/kg,po administration for 25 days; assay type: functional; conditions: time 25.0 day
[10] = target: T1, Protein cereblon/Tyrosine-protein kinase BTK (Mus musculus); experiment: In vivo protac activity at CRBN/BTK in BALB/c mouse assessed as remaining BTK protein in blood at 3 mg/kg,po administration measured after 6 hrs by flow cytomtery relative to control; assay type: functional, organism-based

| Compound | DC50 [2] | DC50 [3] | Emax [4] | Emax [5] | also measured |
| --- | --- | --- | --- | --- | --- |
| CN1CCN([C@@H]2CCCN(c3cnc(C(N)=O)c(Nc4ccc(N5CCC6(CC5)CCN(c5ccc7c(c5)C(=O)N(C5CCC(=O)NC5=O)C7=O)CC6)cc4)n3)C2)C1=O (some centres undefined) | 0.9 nM | 1.3 nM | 96% | 96% | Activity [1]: 18% |
| CN1CCN([C@@H]2CCCN(c3cnc(C(N)=O)c(Nc4ccc(C5CCN(CC6CCN(c7ccc8c(c7)C(=O)N(C7CCC(=O)NC7=O)C8=O)CC6)CC5)cc4)n3)C2)C1=O (some centres undefined) | 0.75 nM | – | 94% | – | Emax [6]: 74%; DC50 [7]: 28 nM |
| C=CC(=O)N1CCC[C@@H](n2nc(-c3ccc(Oc4ccccc4)cc3)c3c(N)ncnc32)C1 [IBRUTINIB] | – | – | – | – | inhibition in vivo at 30 mg/kg (TMD8 [8]): 55%; Activity (TMD8 [9]): inactive |
| CN1CCN([C@@H]2CCCN(c3cnc(C(N)=O)c(Nc4ccc(C5CCN(CC6CN(c7ccc8c(c7)C(=O)N(C7CCC(=O)NC7=O)C8=O)C6)CC5)cc4)n3)C2)C1=O (some centres undefined) | 0.8 nM | – | 97% | – | – |
| CN1CCN([C@@H]2CCCN(c3cnc(C(N)=O)c(Nc4ccc(C5CCN(C[C@@H]6CCN(c7ccc8c(c7)C(=O)N(C7CCC(=O)NC7=O)C8=O)C6)CC5)cc4)n3)C2)C1=O (some centres undefined) | 1.2 nM | – | 93% | – | – |
| Cn1cc(-c2ccnc(-n3ncc4cc(C(C)(C)C)cc(F)c4c3=O)c2CO)cc(Nc2cc3n(n2)CCN(C(=O)CCOCCCc2cccc4c2CN(C2CCC(=O)NC2=O)C4=O)C3)c1=O (centres undefined) | 50 nM | – | 79% | – | – |
| Cc1[nH]c2c(C(N)=O)ccc(N3CCC[C@H](NC(=O)CCCCCCc4cccc5c4CN(C4CCC(=O)NC4=O)C5=O)C3)c2c1C (some centres undefined) | > 10000 nM | – | < 20% | – | – |
| CN1CCN([C@@H]2CCCN(c3cnc(C(N)=O)c(Nc4cnn(C5CCN(CC6CCN(c7ccc8c(c7)C(=O)N(C7CCC(=O)NC7=O)C8=O)CC6)CC5)c4)n3)C2)C1=O (some centres undefined) | – | 0.63 nM | – | 96% | Activity [10]: 48% |
| CN1CCN([C@@H]2CCCN(c3cnc(C(N)=O)c(Nc4ccc(C5(C)CCN(C[C@H]6CCN(c7ccc8c(c7)C(=O)N(C7CCC(=O)NC7=O)C8=O)C6)CC5)cc4)n3)C2)C1=O (some centres undefined) | – | 0.6 nM | – | 96% | Activity [1]: 27% |
| C[C@H]1CN(C(=O)CCOCCCc2cccc3c2CN(C2CCC(=O)NC2=O)C3=O)CCN1c1ccc(Nc2cc(-c3ccnc(N4CCn5c(cc6c5CC(C)(C)C6)C4=O)c3CO)cn(C)c2=O)nc1 (some centres undefined) | 7.2 nM | – | 88% | – | – |
| Nc1ncnc2c1c(-c1ccc(Oc3ccccc3)cc1)nn2C1CCN(C(=O)CCOCCOCCOCCOCCOCCNc2cccc3c2C(=O)N(C2CCC(=O)NC2=O)C3=O)CC1 (centres undefined) | 32 nM | – | 88% | – | – |
| Cc1cccc(C[C@@H](NC(=O)c2ccc3[nH]ncc3c2)C(=O)N2Cc3[nH]c4ccccc4c3C[C@@H]2C(=O)NCCOCCOCCOCCOCCOCCOCCOCCNc2cccc3c2C(=O)N(C2CCC(=O)NC2=O)C3=O)c1 (some centres undefined) | 2880 nM | – | 51% | – | – |
| CN1CCN([C@@H]2CCCN(c3cnc(C(N)=O)c(Nc4ccc(C5CCN(C[C@H]6CCN(c7ccc8c(c7)CN(C7CCC(=O)NC7=O)C8=O)C6)CC5)cc4)n3)C2)C1=O (some centres undefined) | – | 0.25 nM | – | 96% | Activity [10]: 49% |
